Like-named read-outs stand apart in the source and are kept apart here.
Target: AeKir1 (Aedes aegypti, UniProt L0EQS9)
Experiment: Tl+ flux assay in T-REx-HEK293-AeKir1 cells
Assay type: cell-based
Description: Tl^+ flux assays were performed essentially as described previously, [18], [19]. Briefly, stably transfected T-Rex-HEK-293 cells expressing AeKir1 channels were cultured overnight in 384-well plates (20,000 cells/20 µL/well black-walled, clear-bottomed BD PureCoat amine-coated plates (BD, Bedford, MA) with a plating media containing DMEM, 10% dialyzed FBS and 1 µg/mL tetracycline. The next day, the cell culture medium was replaced with a dye-loading solution containing assay buffer (Hanks Balanced Salt Solution with 20 mM HEPES, pH 7.3), 0.01% (w/v) Pluronic F-127 (Life Technologies, Carlsbad, CA), and 1.2 µM of the thallium-sensitive dye Thallos-AM (TEFlabs, Austin, TX). Following 1 hr incubation at room temperature, the dye-loading solution was washed from the plates and replaced with 20 µL/well of assay buffer. The plates were transferred to a Hamamatsu Functional Drug Screening System 6000 (FDSS6000; Hamamatsu, Hamamatsu (or Bridgewater, NJ), Japan) where 20 µL/well of test compounds in assay buffer (as prepared below) were added and allowed to incubate with the cells for 20 min. After the incubation period, a baseline recording was collected at 1 Hz for 10 s (excitation 470±20 nm, emission 540±30 nm) followed by a Tl^+ stimulus buffer addition (10 µL/well) and data collection for an additional 4 min. The Tl^+ stimulus buffer contains in (mM) 125 NaHCO3, 1.8 CaSO4, 1 MgSO4, 5 glucose, 12 Tl2SO4, 10 HEPES, pH 7.4. For Tl^+ flux assays on the mammalian channels Kir2.x, Kir4.1 and Kir6.2/SUR1 expressing cells, the Tl^+ stimulus buffer contained 1.8 mM Tl2SO4. Also, Tl^+ flux assays on Kir3.1/3.2/mGlu8 expressing cell, required addition of an EC80 concentration of glutamate (Sigma-Aldrich, St. Louis, MO) with the Tl^+ stimulus buffer. The test compounds were transferred to daughter polypropylene 384-well plates (Greiner Bio-One, Monroe, NC) using an Echo555 liquid handler (Labcyte, Sunnyvale, CA), and then diluted into assay buffer to generate a 2X stock in 0.6% DMSO (0.3% final). For Tl^+ flux assays on Kir6.2/SUR1 expressing cells, test compounds were diluted in assay buffer containing diazoxide (250 µM final) to induce channel activation. Concentration-response curves (CRCs) were generated by screening compounds at 3-fold dilution series in 4-point (1 µM–30 µM) or 11-point (1 nM–30 µM) CRCs. Tl^+ flux data were analyzed as previously described, [21], [22] using a combination of Excel (Microsoft Corp, Redmond, WA) with XLfit add-in (IDBS, Guildford, Surrey, UK) and OriginPro (OriginLab, Northampton, MA) software. Raw data were opened in Excel and each data point in a given trace was divided by the first data point from that trace (static ratio) followed by subtraction of data points from control traces generated in the presence of vehicle controls. The slope of the fluorescence increase beginning 5 s after Tl^+ addition and ending 15 s after Tl^+ addition was calculated. To compare the effect of DMSO on AeKir1-mediated Tl^+ flux, a one-way ANOVA was performed with a Tukey's multiple comparison test. Prism software (GraphPad Software) was used to generate CRC from Tl^+ flux. Half-inhibition concentration (IC50) values were calculated from fits using a four parameter logistic equation.

Chain of AeKir1 (L0EQS9 entry or part of it): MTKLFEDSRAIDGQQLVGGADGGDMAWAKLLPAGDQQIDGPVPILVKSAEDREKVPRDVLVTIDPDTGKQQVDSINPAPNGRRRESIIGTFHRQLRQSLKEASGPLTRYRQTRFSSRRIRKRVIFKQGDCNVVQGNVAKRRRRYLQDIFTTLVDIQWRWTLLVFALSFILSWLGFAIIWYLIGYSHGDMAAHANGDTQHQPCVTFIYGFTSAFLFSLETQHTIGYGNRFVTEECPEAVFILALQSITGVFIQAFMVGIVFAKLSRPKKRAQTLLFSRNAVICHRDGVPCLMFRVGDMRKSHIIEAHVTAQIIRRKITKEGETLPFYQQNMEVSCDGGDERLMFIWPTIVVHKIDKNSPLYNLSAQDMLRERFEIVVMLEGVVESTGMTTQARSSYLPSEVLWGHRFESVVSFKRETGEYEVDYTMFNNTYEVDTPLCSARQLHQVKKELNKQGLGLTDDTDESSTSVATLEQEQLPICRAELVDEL

CCC(=O)N1c2ccc(S(=O)(=O)Nc3cccc(OC)c3)cc2CC1C (centres unmarked) [VU625, N-(3-methoxyphenyl)-2-methyl-1-propionylindoline-5-sulfonamide]
IC50 (11-point CRCs, 95% CI: 0.25–0.39 µM, read-out: IC50 (AeKir1, Tl+ flux)): 320 nM | IC50 (Fig. 2C, 95% CI: 254.4–390.2 nM, n = 4 independent experiments in triplicate, read-out: IC50 (AeKir1, Tl+ flux)): 315 nM | IC50 (Table 2, southern amide SAR, 11-point CRCs on AeKir1 in Tl+ flux, triplicate on two separate days, read-out: IC50±SEM): 360 ± 20 nM | IC50 (Table S3, left-hand sulfonamide SAR, 11-point CRCs on AeKir1 in Tl+ flux, triplicate on two separate days, read-out: IC50): 856 nM | Hill coefficient (nH) (Tl+ flux CRC, 95% CI: 0.8–1.2): 0.98

Source: publication PMC4222822, “Discovery and Characterization of a Potent and Selective Inhibitor of Aedes aegypti Inward Rectifier Potassium Channels” (PLoS ONE, 2014)
